Where “and” joins values, the source holds several entries; their conditions need not be identical. Equal values may be shown once.
What was measured:
[1] = system: mGluR-LTD in CA1 pyramidal neurons of hippocampal slices (native 5-HT7 receptors); assay: Patch clamp: reversal of DHPG-induced mGluR-LTD of EPSCs in CA1 pyramidal neurons, hippocampal slices from wild-type mice; assay type: cell-based; conditions: 5 min, measured 45 min after DHPG; for EPSC amplitude: compound 10 nM
Description: (§1) Patch clamp experiments were performed on mouse hippocampal slices from wild-type (wt) mice (FVB and C57BL/6J background) and Fmr1 KO2 mice (C57BL/6J background, kindly provided by Prof. Willemsen, Erasmus MC, Rotterdam, The Netherlands). […] Every care was taken to maximally reduce the number of animals and to minimize discomfort.
(§2) Acute hippocampal slices ([…]) were cut with a vibratome (Leica VT 1200). Slices were continually perfused with oxygenated ACSF. After 3 h of recovery, one slice was placed in the recording chamber of a patch camp set up and viewed with infrared microscopy (Leica DMLFS). A tungsten electrode was placed in the stratum radiatum to stimulate Schaffer collaterals with negative current pulses (duration 0.3 ms, delivered every 15 s by A310 Accupulser, WPI, USA). Evoked AMPA receptor-mediated excitatory post-synaptic currents (EPSCs) were recorded from CA1 pyramidal neurons under whole-cell patch clamp (holding potential -70 mV; EPC7-plus amplifier HEKA, Germany). Stimulation intensity was set to induce half-maximal EPSC amplitude. Series resistance (Rs) was monitored throughout the recording by means of 10 mV hyperpolarizing pulses; recordings were discarded from analysis if Rs changed by more than 20%. EPSC traces were filtered at 3 kHz and digitized at 10 kHz. Data were acquired and analyzed using Signal software (CED, England). The recording micropipette (resistance 1.5–3 MΩ) was filled with intracellular solution (in mM: K-gluconate 140; HEPES 10; NaCl 10; MgCl2 2; EGTA 0.2; Mg-ATP 3.5; Na-GTP 1; pH 7.3).
(§3) Cumulative histograms indicate % EPSC amplitude (mean ± SEM from groups of neurons) after application of DHPG alone (control LTD) or DHPG followed by a 5-HT7 receptor agonist. EPSC amplitude values from two groups of neurons were compared using the Student's t-test, with n indicating the number of neurons tested in each condition.

[2] = system: mGluR-LTD in CA1 pyramidal neurons of hippocampal slices (native 5-HT7 receptors); assay: Patch clamp: reversal of DHPG-induced mGluR-LTD of EPSCs in CA1 pyramidal neurons, hippocampal slices from Fmr1 KO mice; assay type: cell-based; conditions: Fmr1 KO (C57BL6J) slices, 5 min; for EPSC amplitude: compound 10 nM, applied after DHPG (100 μM, 5 min)
Description: as §1, §2, §3

[3] = Metabolic stability in mouse hepatic microsomes with NADPH-generating system; assay type: in vitro ADME; conditions: pH 7.4; for half-life at 1 μM: mouse liver microsomes 0.5 mg/mL, 1 μM compound, 37°C; for microsomal CLint at 1 μM: calculated from in vitro half-life, mouse liver microsomes
Description: Metabolic reactions were initiated by the addition of a NADPH regenerating system (NADP, glucose-6-phosphate, glucose-6-phosphate dehydrogenase, final glucose-6-phosphate dehydrogenase concentration, 1 unit/mL). Aliquots were removed (0, 5, 10, 30, and 60 min) and immediately mixed with an equal volume of cold acetonitrile containing internal standard. Test compound incubated with microsomes without NADPH regenerating system for 60 min was included. […] The column used was a Phenomenex Gemini C-18 (250 × 4.6 mm, 5 μm particle size). The samples were isocratically eluted using CH3CN/ammonium formate (20 mM, pH 5.5) 7:3 (v/v) as mobile phase. […] Liver microsomes provide the most convenient way to study cytochrome P450 enzyme-mediated metabolism.

5-HT1A receptors = biological target: T1, 5-HT1A receptors (Homo sapiens, UniProt P08908); assay: Binding affinity for 5-HT1A receptors
T1 sequence (P08908 1-422): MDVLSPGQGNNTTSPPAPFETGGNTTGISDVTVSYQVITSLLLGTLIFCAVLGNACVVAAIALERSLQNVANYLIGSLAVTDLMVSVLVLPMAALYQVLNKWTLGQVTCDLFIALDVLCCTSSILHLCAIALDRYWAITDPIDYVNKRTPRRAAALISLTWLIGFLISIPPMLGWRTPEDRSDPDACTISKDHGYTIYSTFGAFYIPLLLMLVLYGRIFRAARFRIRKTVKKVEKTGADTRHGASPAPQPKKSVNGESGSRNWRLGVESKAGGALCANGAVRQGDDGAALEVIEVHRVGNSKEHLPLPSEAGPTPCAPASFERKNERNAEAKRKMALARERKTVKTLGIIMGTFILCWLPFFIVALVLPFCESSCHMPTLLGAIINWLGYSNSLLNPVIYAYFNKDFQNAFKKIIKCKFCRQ
From the text: Table 1 Binding Affinity Data and Pharmacokinetic Parameters of Test Compounds. | column: 5-HT1AKi [nM]

5-HT7 receptors = 5-HT7 receptors (Homo sapiens, UniProt P34969); assay: Radioligand binding affinity for 5-HT7 receptors
Chain of 5-HT7 receptors (P34969 whole entry): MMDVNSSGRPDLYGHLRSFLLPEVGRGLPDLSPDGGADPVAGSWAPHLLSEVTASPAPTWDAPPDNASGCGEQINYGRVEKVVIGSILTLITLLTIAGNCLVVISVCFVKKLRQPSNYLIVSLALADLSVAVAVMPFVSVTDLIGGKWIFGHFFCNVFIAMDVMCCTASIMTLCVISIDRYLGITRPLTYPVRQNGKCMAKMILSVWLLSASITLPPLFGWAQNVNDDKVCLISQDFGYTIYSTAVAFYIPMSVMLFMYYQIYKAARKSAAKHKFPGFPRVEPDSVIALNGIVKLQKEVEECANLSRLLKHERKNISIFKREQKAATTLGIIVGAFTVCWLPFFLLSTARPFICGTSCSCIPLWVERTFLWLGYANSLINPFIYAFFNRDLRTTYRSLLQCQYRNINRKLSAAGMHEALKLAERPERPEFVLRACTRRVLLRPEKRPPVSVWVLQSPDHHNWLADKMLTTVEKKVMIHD

P-glycoprotein (P-gp) = biological target: T2, P-glycoprotein (P-gp) (Homo sapiens, UniProt P08183); assay: Efflux ratio (BA/AB) in Caco-2 cells monolayer; assay type: in vitro ADME; conditions: efflux ratio basal-to-apical / apical-to-basal, Caco-2 monolayer, cutoff 3 for P-gp substrate
T2 construct: fluxes in Caco-2 cells monolayer; endogenous in cells; host or cells: Caco-2 cells
T2 sequence (P08183 whole entry): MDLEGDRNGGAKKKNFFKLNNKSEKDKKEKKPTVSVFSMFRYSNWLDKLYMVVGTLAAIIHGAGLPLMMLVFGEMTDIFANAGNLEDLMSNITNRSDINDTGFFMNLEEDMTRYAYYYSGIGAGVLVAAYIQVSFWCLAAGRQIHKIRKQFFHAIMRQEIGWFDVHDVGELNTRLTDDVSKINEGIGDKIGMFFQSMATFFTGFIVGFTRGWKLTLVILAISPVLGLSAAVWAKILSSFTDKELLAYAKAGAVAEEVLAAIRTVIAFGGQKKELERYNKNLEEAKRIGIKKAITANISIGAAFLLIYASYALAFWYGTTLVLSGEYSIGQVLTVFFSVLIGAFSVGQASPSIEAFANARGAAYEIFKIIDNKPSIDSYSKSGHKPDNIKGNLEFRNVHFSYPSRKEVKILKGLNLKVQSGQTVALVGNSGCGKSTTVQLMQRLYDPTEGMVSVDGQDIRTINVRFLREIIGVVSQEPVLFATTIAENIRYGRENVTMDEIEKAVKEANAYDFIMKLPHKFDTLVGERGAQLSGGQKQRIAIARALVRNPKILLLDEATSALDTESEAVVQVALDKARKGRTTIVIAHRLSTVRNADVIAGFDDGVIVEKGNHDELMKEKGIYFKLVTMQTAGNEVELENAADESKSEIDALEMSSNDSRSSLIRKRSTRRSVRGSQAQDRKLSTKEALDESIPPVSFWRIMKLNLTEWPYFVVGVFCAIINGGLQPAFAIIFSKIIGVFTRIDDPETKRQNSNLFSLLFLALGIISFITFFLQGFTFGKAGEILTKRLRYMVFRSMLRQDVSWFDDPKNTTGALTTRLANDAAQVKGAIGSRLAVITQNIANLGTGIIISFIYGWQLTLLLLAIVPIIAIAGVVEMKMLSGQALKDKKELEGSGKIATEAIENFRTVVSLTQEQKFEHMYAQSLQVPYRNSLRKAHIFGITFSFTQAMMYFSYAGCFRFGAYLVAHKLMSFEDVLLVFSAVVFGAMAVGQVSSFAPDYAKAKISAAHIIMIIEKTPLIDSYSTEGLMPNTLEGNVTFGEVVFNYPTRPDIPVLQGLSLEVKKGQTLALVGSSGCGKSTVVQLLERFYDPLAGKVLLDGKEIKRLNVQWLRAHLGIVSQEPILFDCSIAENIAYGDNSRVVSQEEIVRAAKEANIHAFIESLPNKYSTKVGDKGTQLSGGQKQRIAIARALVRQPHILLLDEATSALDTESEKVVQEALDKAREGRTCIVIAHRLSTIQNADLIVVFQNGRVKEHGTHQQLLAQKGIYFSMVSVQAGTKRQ
From the text: This system is an in vitro model to evaluate the interaction of small molecules with P-glycoprotein (P-gp), an efflux pump localized on the blood-brain barrier that prevents xenobiotics to enter the brain. Therefore, a centrally acting drug should not be a P-gp substrate.

[4] = design: method as in Leopoldo et al., 2008; conditions: mice, intraperitoneal injection; ref Leopoldo et al., 2008; cited from earlier work
[5] = wt FVB slices, applied after DHPG (100 μM, 5 min)

Which EPSC amplitude [1, 5] does the source give for `c1ccc(-c2ccccc2N2CCNCC2)cc1` [RA-7, 1-(2-biphenyl)piperazine] here?
The EPSC amplitude was 64 ± 7 % of control.

With `N[C@H](C(=O)O)c1cc(O)cc(O)c1` [DHPG, S-3,5-DHPG] as the compound, how does the “EPSC amplitude after DHPG alone (mGluR-LTD)” value ([1]; wt C57BL/6J slices, DHPG 100 μM) read?
Its value is 74.4 ± 9.8 % of control.

What about the “EPSC amplitude after DHPG alone (mGluR-LTD)” value ([2]; DHPG 100 μM, measured 45 min after DHPG) of the same compound?
Its value is 56 ± 5 % of control and 56 ± 12 % of control.

With `COc1ccc(-c2ccccc2N2CCNCC2)cc1` [PM-20, 1-[2-(4-methoxyphenyl)phenyl]piperazine] as the compound, how does the EPSC amplitude [1, 5] read?
The EPSC amplitude was 60 ± 7 % of control.

For `COc1ccc(-c2ccccc2N2CCN(C[C@@H](O)COc3cnccn3)CC2)cc1` [BA-10, (R)-1-[4-[2-(4-methoxyphenyl)phenyl]piperazin-1-yl]-3-(2-pyrazinyloxy)-2-propanol], which half-life at 1 μM [3] is on record?
Its half-life at 1 μM is 14.8 min.

What about the microsomal CLint at 1 μM [3] of the same compound?
Its microsomal CLint at 1 μM is 96 µL/min/mg.

For `COc1ccc(-c2ccccc2N2CCN(CCCCCC(=O)NCc3ccc(F)nc3)CC2)cc1` [PF-62, N-(2-fluoropyridin-5-ylmethyl)-4-[2-(4-methoxy)phenyl]-1-piperazinehexanamide], which Ki (5-HT1A receptors) is on record?
The Ki was 152 nM.

What about the Ki (5-HT7 receptors) of the same compound?
The Ki was 3.82 nM.

And the half-life at 1 μM [3]?
The half-life at 1 μM was 6.7 min.

And the microsomal CLint at 1 μM [3]?
Its microsomal CLint at 1 μM is 205 µL/min/mg.

What about the efflux ratio (P-glycoprotein (P-gp)) of the same compound?
The efflux ratio was 4.2.

Which Ki (5-HT1A receptors) does the source give for `N#Cc1ccc(CNC(=O)CCCCCN2CCN(c3ccccc3-c3ccccc3)CC2)cc1` [LP-211, N-(4-cyanophenylmethyl)-4-(2-diphenyl)-1-piperazinehexanamide, reference compound] here?
Its Ki is 188 nM.

And the in vivo half-life [4]?
The in vivo half-life was 65 min.

And the EPSC amplitude ([1]; wt C57BL/6J slices, applied 5 min after DHPG (100 μM, 5 min))?
Its EPSC amplitude is 99.4 ± 1.5 % of control.

What about the half-life at 1 μM [3] of the same compound?
Its half-life at 1 μM is 10.6 min.

And the microsomal CLint at 1 μM [3]?
Its microsomal CLint at 1 μM is 131 µL/min/mg.

What about the EPSC amplitude ([2]; 45 min after DHPG) of the same compound?
The EPSC amplitude was 78 ± 5 % of control.

What about the EPSC amplitude ([2]; 55 min after DHPG) of the same compound?
The EPSC amplitude was 97 ± 3 % of control.

— PMC4357247, “Novel agonists for serotonin 5-HT7 receptors reverse metabotropic glutamate receptor-mediated long-term depression in the hippocampus of wild-type and Fmr1 KO mice, a model of Fragile X Syndrome” (Frontiers in Behavioral Neuroscience, 2015)
